Data set [1] is described as follows: Urine odor panel ranking, dye powders in urine, 1.6 millimolar (Example 6). Set-up: species or system human. The settings on record: 1.6 millimolar dye in urine, 24 hours, 37° C. How it is done: (§1) Qualitative odor reduction was also assessed against common odors, such as garlic and urine. Specifically, panelists assessed odorant-containing jars by carefully unscrewing, and then raising the lid of each jar in a controlled manner, such that the odor was not diluted by the ambient air. The jars were wrapped and coded to ensure that the sample identity was unknown.
The effectiveness of various dyes in reducing urine odor was compared. The dyes chosen for this example were powders of Acid Blue 25, Acid Blue 45, Acid Blue 129, FD&C Blue No. 1 (a triarylmethane dye), Acid Green 27, Acid Green 41, and Mordant Violet 5 (Alizarin Violet 3R) (commercially available from Sigma-Aldrich Chemical Co., Inc. of St. Louis, Mo.), as well as D&C Green No. 5 (commercially available from Noveon Hilton Davis, Inc. of Cincinnati, Ohio). Human female urine was initially collected and pooled by a nurse on staff at Kimberly-Clark Corporation. […] Powders of the aforementioned dyes were weighed and placed into the mason jars containing 50 milliliters of urine so that the final concentration of the dye powder was 1.6 millimolar (equivalent to 0.1 wt. %). […] A score of “10” was assigned to the most malodorous jar and a score of “1” was assigned to the least malodorous jar.

Data set [2] can be described thus: Urine odor and secondary odor panel ranking, dye powders in urine, 8 millimolar (Example 7). Also noted: species or system human. To be noted: for Secondary Odor Ranking: scale 1 to 5, 5 extremely unpleasant, individual panelists' scores. How it is done: as §1
The effectiveness of various dyes in reducing urine odor was compared. […] Human female urine was initially collected and pooled by a nurse on staff at Kimberly-Clark Corporation. The pooled urine was added to mason jars in 50-milliliter aliquots using an automated pipette aid. Powders of the aforementioned dyes (commercially available from Sigma-Aldrich Chemical Co., Inc. of St. Louis, Mo. and Noveon Hilton Davis, Inc. of Cincinnati, Ohio) were weighed and placed into the mason jars containing 50 milliliters of urine so that the final concentration of the dye powder was 8 millimolar (equivalent to 0.5 wt. %). The mason jars were placed in an incubator overnight at 37° C.
To aid in the assessment of the dyes, the mason jars were divided into two groups for a morning assessment, and the best of both groups were compared in an afternoon assessment (after a total of 24 hours). In addition to ranking the jars from least to most malodorous (on a scale from 1 to 7, with 7 being the most malodors), panelists were also asked to judge whether there were secondary (non-urine) odors present and, if so, the extent that the secondary odors were unpleasant (on a scale from 1 to 5, with 5 being extremely unpleasant).
In this assessment, panelists were given instructions to rank the least malodorous jar as “1” and the most malodorous jar as “10,” remaining free to rank the other jars between 2-9.

Data set [3] can be described thus: Redox potential (redox potentiometry). The class given is physicochemical. The settings on record: compared with hydrogen (set at 0). An excerpt:
The ability of quinone compounds to accept electrons from another substance (i.e., be reduced) may be quantified using a technique known as redox potentiometry. Redox potentiometry is a technique that measures (in volts) the affinity of a substance for electrons—its electronegativity—compared with hydrogen (which is set at 0). Substances more strongly electronegative than (i.e., capable of oxidizing) hydrogen have positive redox potentials. Substances less electronegative than (i.e., capable of reducing) hydrogen have negative redox potentials. The greater the difference between the redox potentials of two substances (ΔE), the greater the vigor with which electrons will flow spontaneously from the less positive to the more positive (more electronegative) substance. As is well known in the art, redox potential may be measured using any of a variety of commercially available meters, such as an Oxidation Reduction Potential (ORP) tester commercially available from Hanna Instruments, Inc. of Woonsocket, R.I. The redox potential of the quinone compounds may, for instance, be less than about −50 millivolts (mV), in some embodiments less than about −150 mV, in some embodiments less than about −300 mV, and in some embodiments, less than about −500 mV. Although not always the case, the redox potential may vary based on the number and location of functional groups, such as sulfonic acid, on the quinone structure. For example, 2-sulfonic acid anthraquinone has a redox potential of −380 mV; 2,6-disulfonic acid anthraquinone has a redox potential of −325 mV; and 2,7-disulfonic acid anthraquinone has a redox potential of −313 mV. Likewise, 2-sulfonic acid naphthaquinone has a redox potential of −60 mV. The use of other functional groups may also have an affect on the ultimate redox potential of the compound. For example, Acid Blue 25, which also contains amino- and aramid functional groups, has a redox potential of −605 mV.

[4] abbreviates: First Grouping, morning assessment, 8 millimolar, 7 most malodorous.
[5] abbreviates: First Grouping, scale 1 to 7, 7 most malodorous.
Setting [6] is: After 24 Hours, top performers of both groupings, 1 least, 10 most malodorous.

The source of these data is patent publication US8409618B2, “Odor-reducing quinone compounds” (Kimberly-Clark Worldwide, Inc., priority 2002, dated 2013).

As to `Cc1ccc(Nc2cccc3c2C(=O)c2cccc(Nc4ccc(C)cc4S(=O)(=O)[O-])c2C3=O)c(S(=O)(=O)[O-])c1.[Na+].[Na+]`, the “urine odor reduction (panel)” value in data set [1] is recorded as “did not perform as well in reducing odor as D&C Green No. 5”. Besides, in data set [2] (setting [4]), the “Urine Odor Ranking (number of panelists): ranking 4” value (“Urine Odor Ranking … ranking 4” below) is reported as 1 number of panelists, the “Urine Odor Ranking (number of panelists): ranking 6” value is recorded as 3 number of panelists and the “Urine Odor Ranking (number of panelists): ranking 7” value was 1 number of panelists. Moreover, in data set [2] (First Grouping), the “Secondary Odor Ranking” value was 1. In data set [2] (setting [5]), the “Average Urine Odor Ranking, Avg. Score” value is given as 5.8.

Turning to `Nc1c(S(=O)(=O)[O-])cc(Nc2ccccc2)c2c1C(=O)c1ccccc1C2=O.[Na+]` [Acid Blue 25], the redox potential in data set [3] is given as −605 mV. Further, in data set [2] (setting [6]), the “Urine Odor Ranking … ranking 4” value is reported as 1 number of panelists, the “Urine Odor Ranking (number of panelists): ranking 7” value is given as 1 number of panelists, the “Urine Odor Ranking (number of panelists): ranking 9” value was 2 number of panelists and the “Urine Odor Ranking (number of panelists): ranking 10” value was 1 number of panelists. Moreover, the “Secondary Odor Ranking” value in data set [2] (After 24 Hours) stood at 4. In data set [2] (setting [4]), the “Urine Odor Ranking (number of panelists): ranking 1” value is listed as 1 number of panelists, the “Urine Odor Ranking (number of panelists): ranking 2” value is 1 number of panelists, the “Urine Odor Ranking (number of panelists): ranking 3” value is listed as 1 number of panelists and the “Urine Odor Ranking … ranking 4” value is given as 1 number of panelists. For the same compound, in data set [2] (setting [4]), the “Urine Odor Ranking (number of panelists): ranking 5” value is recorded as 1 number of panelists. Also, the “Secondary Odor Ranking” value in data set [2] (First Grouping) is 2. Also, the “Average Urine Odor Ranking, Avg. Score” value in data set [2] (setting [5]) turned out to be 3.0. For the same compound, the “Average Urine Odor Ranking, Avg. Score” value in data set [2] (after 24 hours, top performers, 1 least, 10 most malodorous) turned out to be 6.8. Also, the “Average Urine Odor Ranking (with statistical corrections), Avg. Score” value in data set [2] (after 24 hours, top performers, ignoring statistical anomalies) is reported as 8.8. For the same compound, the “urine odor reduction (panel)” value in data set [2] (first grouping) was “functioned effectively to reduce odor”.
